{"source": "the supplement of paper PMC10307832", "test_in_all_cases": "relative viability (nuclei count vs DMSO), 5 days (fraction); higher = more cells survive", "key": {"A-427": {"tested_on": "A-427", "summary_of_the_method": "(§1)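 Cells from lung cancer lines were seeded into 1536-well plates and, one day later, dosed by pin tool. Treatments were either a single drug or a fixed dose of an anchor drug with five library-drug doses (not always all listed) in √10 steps. After 5 days, nuclei were stained in a one-step fixation (final 0.05% Triton X-100, 1% formaldehyde, 1 ug/ml Hoechst) and counted on 4× images, and relative viability is the treated-to-vehicle nuclei ratio, as the median of duplicate plates.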"}, "COR-L 105": {"tested_on": "COR-L 105", "summary_of_the_method": "as §1"}, "ChaGo-K-1": {"tested_on": "ChaGo-K-1", "summary_of_the_method": "as §1"}, "EKVX": {"tested_on": "EKVX", "summary_of_the_method": "as §1"}, "EMC-BAC-2": {"tested_on": "EMC-BAC-2", "summary_of_the_method": "as §1"}, "H3255": {"tested_on": "H3255", "summary_of_the_method": "as §1"}, "HCC-366": {"tested_on": "HCC-366", "summary_of_the_method": "as §1"}, "LK-2": {"tested_on": "LK-2", "summary_of_the_method": "as §1"}, "LOU-NH91": {"tested_on": "LOU-NH91", "summary_of_the_method": "as §1"}, "NCI-H1563": {"tested_on": "NCI-H1563", "summary_of_the_method": "as §1"}, "NCI-H1666": {"tested_on": "NCI-H1666", "summary_of_the_method": "as §1"}, "NCI-H1734": {"tested_on": "NCI-H1734", "summary_of_the_method": "as §1"}, "NCI-H1755": {"tested_on": "NCI-H1755", "summary_of_the_method": "as §1"}, "NCI-H1792": {"tested_on": "NCI-H1792", "summary_of_the_method": "as §1"}, "NCI-H1944": {"tested_on": "NCI-H1944", "summary_of_the_method": "as §1"}, "NCI-H1975": {"tested_on": "NCI-H1975", "summary_of_the_method": "as §1"}, "NCI-H2170": {"tested_on": "NCI-H2170", "summary_of_the_method": "as §1"}, "NCI-H23": {"tested_on": "NCI-H23", "summary_of_the_method": "as §1"}, "NCI-H441": {"tested_on": "NCI-H441", "summary_of_the_method": "as §1"}, "NCI-H520": {"tested_on": "NCI-H520", "summary_of_the_method": "as §1"}, "NCI-H596": {"tested_on": "NCI-H596", "summary_of_the_method": "as §1"}, "PC-3 [JPC-3]": {"tested_on": "PC-3 [JPC-3]", "summary_of_the_method": "as §1"}, "SK-MES-1": {"tested_on": "SK-MES-1", "summary_of_the_method": "as §1"}}}
{"compound": "C[C@@H]1CN(CC(=O)Nc2ccc3c(c2)Cc2cccc(-c4cc(=O)cc(N5CCOCC5)o4)c2S3)C[C@H](C)O1", "note": "+ CS(=O)(=O)N1CCN(Cc2cc3nc(-c4cccc5[nH]ncc45)nc(N4CCOCC4)c3s2)CC1 [Pictilisib] (partner 1 µM)", "values": [{"measurement": "relative viability", "setting": "A-427; first compound 0.04 µM", "value": 0.581}, {"measurement": "relative viability", "setting": "A-427; first compound 0.1265 µM", "value": 0.674}, {"measurement": "relative viability", "setting": "A-427; first compound 0.4 µM", "value": 0.679}, {"measurement": "relative viability", "setting": "A-427; first compound 4 µM", "value": 0.675}, {"measurement": "relative viability", "setting": "COR-L 105; first compound 0.04 µM", "value": 0.344}, {"measurement": "relative viability", "setting": "COR-L 105; first compound 0.1265 µM", "value": 0.402}, {"measurement": "relative viability", "setting": "COR-L 105; first compound 0.4 µM", "value": 0.375}, {"measurement": "relative viability", "setting": "COR-L 105; first compound 4 µM", "value": 0.414}, {"measurement": "relative viability", "setting": "ChaGo-K-1; first compound 0.1265 µM", "value": 0.633}, {"measurement": "relative viability", "setting": "ChaGo-K-1; first compound 0.4 µM", "value": 0.577}, {"measurement": "relative viability", "setting": "ChaGo-K-1; first compound 4 µM", "value": 0.686}, {"measurement": "relative viability", "setting": "EKVX; first compound 0.04 µM", "value": 0.412}, {"measurement": "relative viability", "setting": "EKVX; first compound 0.1265 µM", "value": 0.444}, {"measurement": "relative viability", "setting": "EKVX; first compound 0.4 µM", "value": 0.414}, {"measurement": "relative viability", "setting": "EKVX; first compound 4 µM", "value": 0.428}, {"measurement": "relative viability", "setting": "EMC-BAC-2; first compound 0.04 µM", "value": 0.559}, {"measurement": "relative viability", "setting": "EMC-BAC-2; first compound 0.1265 µM", "value": 0.528}, {"measurement": "relative viability", "setting": "EMC-BAC-2; first compound 0.4 µM", "value": 0.429}, {"measurement": "relative viability", "setting": "EMC-BAC-2; first compound 4 µM", "value": 0.514}, {"measurement": "relative viability", "setting": "H3255; first compound 0.04 µM", "value": 0.483}, {"measurement": "relative viability", "setting": "H3255; first compound 0.1265 µM", "value": 0.535}, {"measurement": "relative viability", "setting": "H3255; first compound 0.4 µM", "value": 0.452}, {"measurement": "relative viability", "setting": "H3255; first compound 4 µM", "value": 0.446}, {"measurement": "relative viability", "setting": "HCC-366; first compound 0.04 µM", "value": 0.151}, {"measurement": "relative viability", "setting": "HCC-366; first compound 0.1265 µM", "value": 0.142}, {"measurement": "relative viability", "setting": "HCC-366; first compound 0.4 µM", "value": 0.138}, {"measurement": "relative viability", "setting": "HCC-366; first compound 4 µM", "value": 0.112}, {"measurement": "relative viability", "setting": "LK-2; first compound 0.1265 µM", "value": 0.634}, {"measurement": "relative viability", "setting": "LK-2; first compound 0.4 µM", "value": 0.607}, {"measurement": "relative viability", "setting": "LK-2; first compound 4 µM", "value": 0.667}, {"measurement": "relative viability", "setting": "LOU-NH91; first compound 0.04 µM", "value": 0.554}, {"measurement": "relative viability", "setting": "LOU-NH91; first compound 0.1265 µM", "value": 0.529}, {"measurement": "relative viability", "setting": "LOU-NH91; first compound 0.4 µM", "value": 0.505}, {"measurement": "relative viability", "setting": "LOU-NH91; first compound 4 µM", "value": 0.539}, {"measurement": "relative viability", "setting": "NCI-H1563; first compound 0.04 µM", "value": 0.616}, {"measurement": "relative viability", "setting": "NCI-H1563; first compound 0.1265 µM", "value": 0.661}, {"measurement": "relative viability", "setting": "NCI-H1563; first compound 0.4 µM", "value": 0.702}, {"measurement": "relative viability", "setting": "NCI-H1563; first compound 4 µM", "value": 0.711}, {"measurement": "relative viability", "setting": "NCI-H1666; first compound 0.04 µM", "value": 0.444}, {"measurement": "relative viability", "setting": "NCI-H1666; first compound 0.1265 µM", "value": 0.298}, {"measurement": "relative viability", "setting": "NCI-H1666; first compound 0.4 µM", "value": 0.439}, {"measurement": "relative viability", "setting": "NCI-H1666; first compound 4 µM", "value": 0.29}, {"measurement": "relative viability", "setting": "NCI-H1734; first compound 0.04 µM", "value": 0.526}, {"measurement": "relative viability", "setting": "NCI-H1734; first compound 0.1265 µM", "value": 0.489}, {"measurement": "relative viability", "setting": "NCI-H1734; first compound 0.4 µM", "value": 0.468}, {"measurement": "relative viability", "setting": "NCI-H1734; first compound 4 µM", "value": 0.487}, {"measurement": "relative viability", "setting": "NCI-H1755; first compound 0.04 µM", "value": 0.381}, {"measurement": "relative viability", "setting": "NCI-H1755; first compound 0.1265 µM", "value": 0.386}, {"measurement": "relative viability", "setting": "NCI-H1755; first compound 0.4 µM", "value": 0.433}, {"measurement": "relative viability", "setting": "NCI-H1755; first compound 4 µM", "value": 0.388}, {"measurement": "relative viability", "setting": "NCI-H1792; first compound 0.04 µM", "value": 0.242}, {"measurement": "relative viability", "setting": "NCI-H1792; first compound 0.1265 µM", "value": 0.264}, {"measurement": "relative viability", "setting": "NCI-H1792; first compound 0.4 µM", "value": 0.274}, {"measurement": "relative viability", "setting": "NCI-H1792; first compound 4 µM", "value": 0.287}, {"measurement": "relative viability", "setting": "NCI-H1944; first compound 0.1265 µM", "value": 0.328}, {"measurement": "relative viability", "setting": "NCI-H1944; first compound 0.4 µM", "value": 0.336}, {"measurement": "relative viability", "setting": "NCI-H1944; first compound 4 µM", "value": 0.33}, {"measurement": "relative viability", "setting": "NCI-H1975; first compound 0.04 µM", "value": 0.32}, {"measurement": "relative viability", "setting": "NCI-H1975; first compound 0.1265 µM", "value": 0.263}, {"measurement": "relative viability", "setting": "NCI-H1975; first compound 0.4 µM", "value": 0.279}, {"measurement": "relative viability", "setting": "NCI-H1975; first compound 4 µM", "value": 0.298}, {"measurement": "relative viability", "setting": "NCI-H2170; first compound 0.1265 µM", "value": 0.343}, {"measurement": "relative viability", "setting": "NCI-H2170; first compound 0.4 µM", "value": 0.274}, {"measurement": "relative viability", "setting": "NCI-H2170; first compound 4 µM", "value": 0.339}, {"measurement": "relative viability", "setting": "NCI-H23; first compound 0.04 µM", "value": 0.448}, {"measurement": "relative viability", "setting": "NCI-H23; first compound 0.1265 µM", "value": 0.499}, {"measurement": "relative viability", "setting": "NCI-H23; first compound 0.4 µM", "value": 0.483}, {"measurement": "relative viability", "setting": "NCI-H23; first compound 4 µM", "value": 0.543}, {"measurement": "relative viability", "setting": "NCI-H441; first compound 0.04 µM", "value": 0.526}, {"measurement": "relative viability", "setting": "NCI-H441; first compound 0.1265 µM", "value": 0.447}, {"measurement": "relative viability", "setting": "NCI-H441; first compound 0.4 µM", "value": 0.43}, {"measurement": "relative viability", "setting": "NCI-H441; first compound 4 µM", "value": 0.372}, {"measurement": "relative viability", "setting": "NCI-H520; first compound 0.04 µM", "value": 0.329}, {"measurement": "relative viability", "setting": "NCI-H520; first compound 0.1265 µM", "value": 0.281}, {"measurement": "relative viability", "setting": "NCI-H520; first compound 0.4 µM", "value": 0.31}, {"measurement": "relative viability", "setting": "NCI-H520; first compound 4 µM", "value": 0.374}, {"measurement": "relative viability", "setting": "NCI-H596; first compound 0.04 µM", "value": 0.386}, {"measurement": "relative viability", "setting": "NCI-H596; first compound 0.1265 µM", "value": 0.417}, {"measurement": "relative viability", "setting": "NCI-H596; first compound 0.4 µM", "value": 0.404}, {"measurement": "relative viability", "setting": "NCI-H596; first compound 4 µM", "value": 0.41}, {"measurement": "relative viability", "setting": "PC-3 [JPC-3]; first compound 0.04 µM", "value": 0.714}, {"measurement": "relative viability", "setting": "PC-3 [JPC-3]; first compound 0.1265 µM", "value": 0.724}, {"measurement": "relative viability", "setting": "PC-3 [JPC-3]; first compound 0.4 µM", "value": 0.801}, {"measurement": "relative viability", "setting": "PC-3 [JPC-3]; first compound 4 µM", "value": 0.669}, {"measurement": "relative viability", "setting": "SK-MES-1; first compound 0.04 µM", "value": 0.381}, {"measurement": "relative viability", "setting": "SK-MES-1; first compound 0.1265 µM", "value": 0.377}, {"measurement": "relative viability", "setting": "SK-MES-1; first compound 0.4 µM", "value": 0.356}, {"measurement": "relative viability", "setting": "SK-MES-1; first compound 4 µM", "value": 0.355}]}
